Laboratory results reported in US9522124B2, “Methods for treating Alzheimer's disease” (Wisconsin Alumni Research Foundation, priority 2011, dated 2016).

Tests used:
ATase2 = target: T1, ATase2 (Homo sapiens, UniProt Q9UHE5); assay: AcetylCoA:lysine acetyltransferase assay (fluorescent, affinity purified ATase2-myc); type: biochemical
T1 construct: myc (C); made in house
T1 sequence (Q9UHE5 1-227): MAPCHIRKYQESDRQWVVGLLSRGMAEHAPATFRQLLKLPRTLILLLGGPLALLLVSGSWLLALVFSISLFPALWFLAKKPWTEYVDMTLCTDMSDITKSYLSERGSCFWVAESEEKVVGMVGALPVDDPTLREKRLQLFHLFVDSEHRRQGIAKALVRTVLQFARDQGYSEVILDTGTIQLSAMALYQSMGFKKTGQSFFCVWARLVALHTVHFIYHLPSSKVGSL
Procedure: The acetyl:CoA lysine acetyltransferase activity of ATase1 and ATase2 was assayed as described before (Ko and Puglielli, 2009). Briefly, we adapted a commercially available fluorescent kit (cat. no. 10006515, Cayman Chemicals) as follows: as source of the enzymatic activity, we used affinity purified ATase1-myc and ATase2-myc at the final concentration of 300 ng/μl; as donor of the acetyl group, we used acetyl-CoA at the final concentration of 12.5 μM. […] The acetyltransferase assay was performed as recommended by the manufacturer.
For kinetic analysis of ATase1 and ATase2 inhibition, the assays were performed in the presence of the indicated concentrations of compound 9, 19 and 9.I. The concentration of acetyl-CoA was varied from […]. Values were plotted as a Lineweaver-Burk plot using Graphpad Prism software.
We previously described a fluorescent assay that is able to assess the acetylCoA:lysine acetyltransferase activity of ATase1 and ATase2 in vitro (Ko and Puglielli, 2009). The assay employs affinity purified ATase1 or ATase2 (as enzymes), acetyl-CoA (as donor of the acetyl group) and a recombinant peptide corresponding to the N-terminal tail of the histone protein H3 (as acceptor of the acetyl group). The H3 peptide was preferred to affinity purified BACE1 because it is acetylated in a conformation independent manner ((Ko and Puglielli, 2009) and data not shown) and, therefore, more suitable for large screening approaches. To identify possible ATase1 and ATase2 inhibitors we used the assay to screen a single library of 14,400 small molecules/compounds. The screen identified 186 small molecules/compounds able to inhibit ATase1, ATase2 or both in vitro. […] Each compound was then screened for cytotoxic properties by using multi-plex cytotoxicity assays on a variety of cell lines, including human neuroblastoma and human neuroglioma. […] The above 30 compounds were individually screened on human neuroglioma (H4) cells for their ability to reduce the levels of BACE1 and the generation of Aβ. Two compounds, 9 and 19, produced significant changes and were object of further study.

[1] = test system: cytosolic and nuclear proteins, histone proteins H3 and H4; assay: Lysine acetylation profile of cytosolic and nuclear proteins in H4 cells; type: cell-based, human; conditions: 48 hours
Procedure: FIG. 8. […] (A and B) H4 cells were treated with either compound 9 or 19 for 48 hours prior to Western blot assessment of the acetylation profile of cytosolic (A) and nuclear (B) proteins. (C) The nuclear fraction used in (B) was also used to assess the lysine acetylation profile of the histone proteins H3 and H4.
(§1) Western blotting was performed on a 4-12% Bis-Tris SDS-PAGE system (NuPAGE; Invitrogen, Carlsbad, Calif., USA) as described previously (Costantini et al., 2006; Jonas et al., 2008; Jonas et al., 2010; Ko and Puglielli, 2007; Ko and Puglielli, 2009; Pehar et al., 2010). The following antibodies were used in this study: anti-acetylated lysine (monoclonal; cat. no. ab409; Abcam, Cambridge, Mass., USA); anti-BACE1 (polyclonal; cat. no. ab2077; Abcam); anti-Myc (monoclonal; cat. no. sc-40; santa cruz, Santa Cruz, Calif., USA); anti-ATases/NAT8 (polyclonal; cat. no. AP4957c; Abgent, San Diego, Calif., USA); anti-actin (monoclonal; cat. no. A1978; Sigma, St Louis, Mo., USA); anti-C99 (monoclonal; cat. no. M066-3; MBL, Woburn, Mass., USA); anti-acetylated H3 (polyclonal; cat. no. 06-599, Millipore, Billerica, Mass.); anti-acetylated H4 (polyclonal; cat. no. 06-866, Millipore, Billerica, Mass.); anti-αPCNA (polyclonal; cat. no. AP2835b, Abgent, San Diego, Calif., USA).
Cytosolic and nuclear extracts were prepared as described before (Ko and Puglielli, 2007). For cytosolic extracts, cells were homogenized in homogenization buffer containing 25 mM Tris-HCl, pH 7.4, 0.5 mM EDTA, 0.5 mM EGTA, and a protease inhibitor mixture. The homogenates were centrifuged at 14,000×g for 15 min, and supernatants were collected as cytosolic proteins.
For nuclear extracts cells were scraped into ice-cold phosphate-buffered saline and collected by centrifugation. The cell pellets were suspended in 3 volumes of lysis buffer (20 mM Hepes, pH 7.9, 10 mM KCl, 1 mM EDTA, pH 8.0, 0.2% Nonidet P-40, 10% glycerol, and a protease inhibitor mixture) followed by incubation on ice for 10 min. Cell suspensions were gently pipetted up and down; the lysates were then centrifuged at 14,000×g for 5 min at 4° C. to obtain nuclear pellets. Nuclear pellets were washed twice with cell lysis buffer (lacking Nonidet P-40 and protease inhibitor mixture) and then resuspended in 2 volumes of nuclear extract buffer (20 mM Hepes, pH 7.9, 10 mM KCl, 1 mM EDTA, pH 8.0, 420 mM NaCl, 20% glycerol, and a protease inhibitor mixture). The nuclei were extracted by incubation at 4° C. for 30 min with gentle agitation followed by centrifugation at 14,000×g at 4° C. for 5 min; the resultant supernatant fraction was used as a nuclear extract.

ATase1 and ATase2 = assay: Western blot assessment of endogenous ATase1/ATase2 levels in H4 cells; type: cell-based, human; conditions: 48 hours
Procedure: FIG. 4. Compound 9 causes degradation of the ATases. (A) H4 cells were treated with the indicated compounds (10 μM) for 48 hours prior to Western blot assessment of BACE1 and ATase1/ATase2 levels in total cell lysates. (B, D and E) Quantification of changes are expressed as percent of control (no treatment) and are the average (n=3)±S.D.*, P<0.05; **, P<0.005; ^#, P<0.0005. (C) ELISA determination of secreted Aβ in the conditioned media of the experiment described in (A). Results are expressed as percent of control (no treatment) and are the average (n=3)±S.D.*, P<0.05; **, P<0.005. (F) CHO cells over-expressing either ATase1 or ATase2 were treated with compound 9 (10 μM) for 48 hours prior to Western blot assessment of ATase1 and ATase2 levels in total cell lysates.
FIG. 13. Compound 9 decreases the levels of both ATase1 and ATase2. (A) H4 cells were treated with the increasing concentrations of compound 9 for 48 hours prior to Western blot assessment of BACE1 and ATase1/ATase2 levels in total cell lysates. (B-D) Quantification of changes are expressed as percent of control (no treatment) and are the average (n=3)±S.D.*, P<0.05; **, P<0.005; ^#, P<0.0005.
as §1, with “AP2835b, Abgent, San Diego, Calif., USA).” left out

With O=c1c(Cl)c2oc3ccccc3nc-2c2ccccc12 [Compound 9] the IC50 (ATase2) was roughly 790 nM, the “kinetics of inhibition for acetyl-CoA, ATase2” value (ATase2; Lineweaver-Burk plot, acetyl-CoA varied) was “non-competitive inhibition” and the “acetylation profile of cytosolic and nuclear proteins” value [1] was “Neither compound 9 nor compound 19 produced significant changes”. The “acetylation profile of the histone protein H3 and H4” value ([1]; nuclear fraction) was “slight reduction”, the “endogenous levels of ATase1 and ATase2” value (ATase1 and ATase2; 10 μM) was “significantly down-regulate” and the “levels of the ATases with increasing concentrations” value (ATase1 and ATase2; increasing concentrations) was “dose-dependent decrease”.
